Where a chain is given by its changes, count along the chain named. “Also recorded” adds a separate entry of the source. One block for each molecule: values may come before it.
Legend:
[1] = test system: NF-κB DNA binding activity in HeLa cells; assay: EMSA of NF-κB DNA binding, nuclear extracts of TNF-α-treated HeLa cells; assay type: cell-based, human; settings: increasing concentrations 10-50 μM; TNF-α-treated HeLa cells
Description: (§1) To prepare nuclear and cytoplasmic protein extracts, HeLa, MEF, and RAW 264.7 cells were lysed in buffer containing 4.3 mM Na2HPO4, 1.47 mM KH2PO4 pH 7.4, 137 mM NaCl, 2.7 mM KCl, 1 mM DTT, 0.05% (v/v) NP-40, and 1×protease inhibitor cocktail for 10 minutes on ice and spun at 3,000 rpm at 4° C. for 10 minutes. The supernatant containing the cytoplasmic fraction was quantified by Bio-Rad protein assay to determine the total amount of protein. Pellets were resuspended in nuclear extraction buffer (25 mM Tris-HCl pH 7.5, 420 mM NaCl, 10% glycerol, 0.2 mM EDTA, 1 mM DTT, 0.5 mM PMSF, 1×protease inhibitor cocktail) once and then subjected to three lysis cycles (freeze at −80° C. and thaw at 37° C.). Finally, samples were centrifuged at 13,000 rpm at 4° C. for 20 minutes, and supernatants containing the soluble nuclear fraction were measured by the Bio-Rad protein assay to determine the total amount of protein. Nuclear and cytoplasmic extracts were aliquoted and kept at −80° C.
(§2) HeLa, MEF, RAW 264.7 cells were cultured in Dulbecco's MEM containing 10% fetal bovine […] supplemented with penicillin and streptomycin, at 37° C. in a humidity incubator with 5% CO2. RAW 264.7 cells were seeded and allowed to adhere for 24 hours then treated with NEMO^ActPep or NEMO^ActPep 6G at different concentrations 60 min before the LPS challenge (100 ng/ml). After 2 hours, nuclear and cytoplasmic extracts were collected. HeLa and MEF cells seeded for 24 hours then treated with NEMO^ActPep or NEMO^ActPep 6G at different concentrations 60 min before the TNF-α challenge (10 ng/ml) for 15 minutes and then nuclear and cytoplasmic extracts were collected. MEF cells were treated with NEMO^ActPep or NEMO^ActPep 6G at different concentrations 1 hour before the LTβR challenge (300 ng/ml). After 24 hours whole cell extracts were collected and aliquoted and kept at −80° C. for further experiments.
(§3) Electrophoretic mobility shift assay (EMSA) was performed using recombinant full length NF-κB ReIA homodimer as a positive control as previously described (45). […] The amount of protein in lysates was quantified by Bio-Rad protein assay. EMSA analysis with quantitative densitometry and signal intensity was quantitated using ImageJ software. […]
It is intrigued by the ability of such a small segment (residues 384-389) of human NEMO to mediate interaction with and promote activation loop phosphorylation of IKK2. […] NF-κB activity was measured by EMSA using nuclear extracts and radiolabeled KB DNA from the immunoglobulin kappa light chain gene (Ig-κB) as the probe (FIG. 5A).

[2] = test system: non-canonical NF-κB signaling (IKK1, p100 processing); assay: Western blot of p100 processing after LTβR engagement (non-canonical NF-κB signaling); assay type: cell-based; settings: increasing peptide concentrations; HeLa cells per FIG. 5C legend
Description: as §2
Equivalent amounts of protein from cell extracts was separated by SDS-PAGE and transferred to polyvinylidene fluoride (PVDF) membranes (Millipore, Bedford, MA, USA). The membrane was blocked with 5% bovine serum albumin (BSA) for 1 hour at room temperature and then the membrane was incubated with the primary antibodies overnight at 4° C. […]

[3] = test system: MAP kinases JNK, Erk2 and p38; assay: Western blot of MAP kinase phosphorylation in TNF-α-treated HeLa cells; assay type: cell-based, human
Description: (§4) Equivalent amounts of protein from cell extracts was separated by SDS-PAGE and transferred to polyvinylidene fluoride (PVDF) membranes (Millipore, Bedford, MA, USA). The membrane was blocked with 5% bovine serum albumin (BSA) for 1 hour at room temperature and then the membrane was incubated with the primary antibodies overnight at 4° C. Antibodies for IKK2, His, HA, Myc, GST, Ubiquitin, IκBα, phospho-IKK2, p65/ReIA, p84, γ-Actin, p100/52, phospho-ERK, phospho-JNK, phospho-p38, ERK, JNK, and p38 were used for detecting multiple specific protein targets. After binding of an appropriate secondary antibody coupled to horseradish peroxidase, the immunoreactive bands were visualized by enhanced chemiluminescence substrate.
It was also tested if TAT-NEMO^ActPep has any effect on non-canonical NF-κB signaling. This alternative NF-κB signaling pathway is activated in response to stimulation of specific cytokine receptors and leads to activation of IKK1 and consequent processing of the p100 precursor to the mature NF-κB subunit p52 (30,31). […] To further investigate the possible involvement of TAT-NEMO^ActPep in other signaling pathways, the effect of the peptide on MAPK activation was tested by monitoring the phosphorylation status of JNK, Erk2, and p38 upon TNF-α treatment of HeLa cells. […]

[4] = test system: canonical NF-κB signaling through IKK2 in HeLa cells; assay: Western blot of canonical NF-κB signaling in TNF-α-treated HeLa cells; assay type: cell-based, human; settings: increasing peptide concentrations
Description: as §1, §2, §4
The inhibitory effects of TAT-NEMO^ActPep were further verified on canonical NF-κB signaling in HeLa cells by assessing IKK2 activation loop phosphorylation, IκBα degradation, and NF-κB ReIA/p65 subunit subcellular localization. Consistent with the observations of decreased nuclear NF-κB DNA binding activity by EMSA, treatment with TAT-NEMO^ActPep blocked IKK2 phosphorylation, IκBα proteolysis, and nuclear translocation of ReIA (FIG. 5B).

[5] = test system: NF-κB DNA binding in RAW 264.7 murine macrophage cells; assay: EMSA of NF-κB DNA binding, nuclear lysates of LPS-treated RAW 264.7 cells; assay type: cell-based; settings: RAW 264.7 cells, 100 ng/mL LPS for 2 hours
Description: as §1
HeLa, MEF, RAW 264.7 cells were cultured in Dulbecco's MEM containing 10% fetal bovine […] supplemented with penicillin and streptomycin, at 37° C. in a humidity incubator with 5% CO2. RAW 264.7 cells were seeded and allowed to adhere for 24 hours then treated with NEMO^ActPep or NEMO^ActPep 6G at different concentrations 60 min before the LPS challenge (100 ng/ml). After 2 hours, nuclear and cytoplasmic extracts were collected. […]
as §3
It was then tested if the observed effect is universal across species and cell types. […] The effect of TAT-NEMO^ActPep on NF-κB DNA binding was also analyzed in MEF cells by EMSA.

[6] = test system: canonical NF-κB signaling through IKK2 in RAW 264.7 murine macrophage cells; assay: Western blot of canonical NF-κB signaling in LPS-treated RAW 264.7 cells; assay type: cell-based; settings: 100 ng/mL LPS for 2 hours
Description: as §1, §2, §4
It was then tested if the observed effect is universal across species and cell types. The effect of TAT-NEMO^ActPep was tested in RAW 264.7 murine macrophage cells treated with 100 ng/mL purified bacterial lipopolysaccharide (LPS) for 2 hours. Again, NF-κB DNA binding and ReIA subunit nuclear localization were both inhibited as were phosphorylation of the IKK2 activation loop and degradation of IκBα. […] The effect of TAT-NEMO^ActPep on NF-κB DNA binding was also analyzed in MEF cells by EMSA.

[7] = target: T1, IKK2 (purified recombinant; construct not stated for the experiment of FIG. 2D) (human, UniProt O14920 1-756, limits assumed); assay: GST pull-down with purified proteins in the presence of Ub4, western blot
T1 sequence (looked up): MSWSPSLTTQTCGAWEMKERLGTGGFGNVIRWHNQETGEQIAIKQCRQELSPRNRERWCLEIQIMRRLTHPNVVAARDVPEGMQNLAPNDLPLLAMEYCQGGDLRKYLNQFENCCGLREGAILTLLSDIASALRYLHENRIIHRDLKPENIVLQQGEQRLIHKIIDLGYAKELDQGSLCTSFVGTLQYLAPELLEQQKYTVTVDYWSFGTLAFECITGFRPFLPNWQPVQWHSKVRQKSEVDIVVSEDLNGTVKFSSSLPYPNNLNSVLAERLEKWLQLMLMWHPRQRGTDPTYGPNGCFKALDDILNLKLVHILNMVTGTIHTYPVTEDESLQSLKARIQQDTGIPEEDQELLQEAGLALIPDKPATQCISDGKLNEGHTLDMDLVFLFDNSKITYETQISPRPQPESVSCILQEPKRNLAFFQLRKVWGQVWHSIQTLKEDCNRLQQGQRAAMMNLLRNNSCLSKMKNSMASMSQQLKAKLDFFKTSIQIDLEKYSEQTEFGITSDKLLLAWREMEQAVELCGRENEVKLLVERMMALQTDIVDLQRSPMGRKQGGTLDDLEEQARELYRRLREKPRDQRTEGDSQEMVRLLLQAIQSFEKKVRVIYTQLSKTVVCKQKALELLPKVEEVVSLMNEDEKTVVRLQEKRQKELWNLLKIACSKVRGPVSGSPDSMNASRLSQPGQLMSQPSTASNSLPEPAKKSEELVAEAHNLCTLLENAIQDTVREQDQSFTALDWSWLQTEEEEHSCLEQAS

[8] = target: T2, full length human IKK2 (recombinant, N-terminal hexahistidine-TEV tag) (human, UniProt O14920 1-756); assay: GST pull-down with purified proteins, western blot
T2 construct: mature; Produced in Sf9 insect cells with baculovirus; also called IKKβ; full length IKK2; not shown: TEV cleavage site and vector residues of pFastBacHTb
T2 sequence: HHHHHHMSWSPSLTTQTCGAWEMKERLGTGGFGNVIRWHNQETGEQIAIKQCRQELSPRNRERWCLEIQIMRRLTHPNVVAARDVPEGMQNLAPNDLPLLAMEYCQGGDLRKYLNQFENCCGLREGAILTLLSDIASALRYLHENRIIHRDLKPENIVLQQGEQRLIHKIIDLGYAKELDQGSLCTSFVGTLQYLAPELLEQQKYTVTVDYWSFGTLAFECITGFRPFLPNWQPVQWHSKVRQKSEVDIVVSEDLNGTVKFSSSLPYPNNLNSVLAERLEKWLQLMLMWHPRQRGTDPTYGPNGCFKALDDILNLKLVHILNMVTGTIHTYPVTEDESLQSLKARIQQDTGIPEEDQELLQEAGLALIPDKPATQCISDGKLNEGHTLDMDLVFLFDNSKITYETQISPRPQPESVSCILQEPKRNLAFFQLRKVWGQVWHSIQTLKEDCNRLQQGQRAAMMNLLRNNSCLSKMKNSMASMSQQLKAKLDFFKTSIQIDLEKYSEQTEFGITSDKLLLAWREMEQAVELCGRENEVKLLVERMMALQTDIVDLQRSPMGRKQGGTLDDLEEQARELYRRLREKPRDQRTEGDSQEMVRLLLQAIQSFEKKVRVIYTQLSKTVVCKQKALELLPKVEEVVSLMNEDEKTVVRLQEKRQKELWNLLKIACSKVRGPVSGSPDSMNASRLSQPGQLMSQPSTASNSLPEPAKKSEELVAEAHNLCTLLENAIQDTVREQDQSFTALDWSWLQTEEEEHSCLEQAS

Molecule: TAT-NEMO^ActPep 6G: control variant of TAT-NEMO^ActPep with NEMO residues 384-389 mutated to glycine (SEQ ID NO 3) (YGRKKRRQRRRGGLSSPLALPSGGGGGGEE) [reference compound]
NF-κB-dependent shift of radiolabeled probe (EMSA) [1]: reduction was not observed; also recorded: does not | processing of p100 in response to LTβR engagement (western blot) [2]: not observed any effect; also recorded: no change in the extent of p100 processing | phosphorylation of JNK, Erk2 and p38 MAP kinases (western blot) [3]: Neither TAT-NEMO^ActPep nor TAT-NEMO^ActPep 6G influenced; also recorded: no effect | IKK2 activation loop phosphorylation (western blot) [4]: showed no such effects | IκBα degradation / proteolysis (western blot) [4]: showed no such effects | NF-κB ReIA/p65 subunit nuclear localization (western blot) [4]: showed no such effects | NF-κB DNA binding [5]: did not show such effects | ReIA subunit nuclear localization (western blot) [6]: did not show such effects | degradation of IκBα (western blot) [6]: did not show such effects | phosphorylation of the IKK2 activation loop (western blot) [6]: did not show such effects

B1: GST-NEMO^241-419 6G (other, human, UniProt Q9Y6K9 241-419, looked up)
chain: YDNHIKSSVVGSERKRGMQLEDLKQQLQQAEEALVAKQEVIDKLKEEAEQHKIVMETVPVLKAQADIYKADFQAERQAREKLAEKKELLQEQLEQLQREYSKLKASCQESARIEDMRKRHVEVSQAPLPPAPAYLSSPLALPSGGGGGGEEPPDFCCPKCQYQAPDMDTLQIHVMECIE
notes: not shown: glutathione-S-transferase (GST) tag of vector pGEX4T-2, N-terminal
binding result [7]: no binding

Further lines, results first:

binding result [7]: no binding
B2: GST-NEMO^241-419 3G (other, human, UniProt Q9Y6K9 241-419, looked up)
chain: B1 chain with G147S, G148P, G149P
notes: as for B1

binding result [8]: no binding
B3: GST-NEMO^111-419 (other, human, UniProt Q9Y6K9 111-419, looked up)
chain: KLDLKRQKEQALREVEHLKRCQQQMAEDKASVKAQVTSLLGELQESQSRLEAATKECQALEGRARAASEQARQLESEREALQQQHSVQVDQLRMQGQSVEAALRMERQAASEEKRKLAQLQVAYHQLFQEYDNHIKSSVVGSERKRGMQLEDLKQQLQQAEEALVAKQEVIDKLKEEAEQHKIVMETVPVLKAQADIYKADFQAERQAREKLAEKKELLQEQLEQLQREYSKLKASCQESARIEDMRKRHVEVSQAPLPPAPAYLSSPLALPSQRRSPPEEPPDFCCPKCQYQAPDMDTLQIHVMECIE
notes: as for B1

From US20240166703A1, “ANTI-INFLAMMATORY PEPTIDE AND METHOD OF USE THEREOF” (The Regents of the University of California, priority 2021, published 2024)
